Experimental findings from ChEMBL document CHEMBL5050829, “Inhibitors of cytochrome P450 family 7 subfamily B member 1 (CYP7B1) for use in treating diseases” (2021) are described below.

Experiment [1] is filed under the species Mus musculus. As to the kind of experiment: Inhibition of Cyp7b1 in cigarette smoke extract (CSE)-stimulated mouse airways at 1 uM assessed as impairment of activated B-cell migration towards supernatant culture relative to control. It counts as tissue-based. The settings on record: Respiratory airway.
The species named for experiment [2] is Mus musculus. As to the kind of experiment: Inhibition of Cyp7b1 in cigarette smoke extract (CSE)-stimulated mouse airways at 0.1 to 1 uM assessed as impairment of activated B-cell migration towards supernatant culture relative to control. It counts as tissue-based. The conditions noted are these: Respiratory airway, dose 0.1-1 µM.
The species named for experiment [3] is Mus musculus. As to the kind of experiment: Inhibition of Cyp7b1 in cigarette smoke extract (CSE)-stimulated mouse airways at 1 uM assessed as reduction in cyp7b1 mRNA expression relative to control. It counts as tissue-based. The conditions noted are these: Respiratory airway.
Experiment [4] deals with Mus musculus. As to the kind of experiment: Protection against cigarette smoke-induced COPD in C57BL/6 mouse exposed with cigarette smoke for 6 months assessed as reduction in emphysema in lungs at 80 mg/kg, ip administered 3 times per week from 2 to 4 months. The experiment is classed as functional, organism-based. The settings on record: Lung.
Experiment [5] deals with B cell. As to the kind of experiment: Inhibition of Cyp7b1 in cigarette smoke extract (CSE) and LPS-stimulated mouse B cells at 0.3 to 1 uM assessed as reduction in Ch25h mRNA expression and measured by RT-PCR analysis relative to control. The experiment is classed as cell-based. The conditions noted are these: dose 0.3-1 µM.
For experiment [6], the species on record is Mus musculus. As to the kind of experiment: Inhibition of Cyp7b1 in cigarette smoke extract (CSE)-stimulated mouse airways at 1 uM assessed as reduction in Ch25h mRNA expression relative to control. It counts as tissue-based. The conditions noted are these: Respiratory airway.
The subject of experiment [7] is Mus musculus. As to the kind of experiment: Protection against cigarette smoke-induced COPD in C57BL/6 mouse exposed with cigarette smoke for 4 months assessed as reduction in iBALT formation in lungs at 80 mg/kg, ip administered 3 times per week from 2 to 4 months. It counts as functional, organism-based. The conditions noted are these: Lung.
The test system of experiment [8] is Mus musculus. As to the kind of experiment: Protection against cigarette smoke-induced COPD in C57BL/6 mouse exposed with cigarette smoke for 4 months assessed as reduction in emphysema in lungs at 80 mg/kg, ip administered 3 times per week from 2 to 4 months. The experiment is classed as functional, organism-based. The settings on record: Lung.
Experiment [9] deals with Mus musculus. As to the kind of experiment: Protection against cigarette smoke-induced COPD in C57BL/6 mouse exposed with cigarette smoke for 4 months assessed as reduction in lymphocyte count in BALF at 80 mg/kg, ip administered 3 times per week from 2 to 4 months. The experiment is classed as functional, organism-based.
Experiment [10] has as its system Mus musculus. As to the kind of experiment: Protection against cigarette smoke-induced COPD in C57BL/6 mouse exposed with cigarette smoke for 4 months assessed as reduction in macrophage count in BALF at 80 mg/kg, ip administered 3 times per week from 2 to 4 months. It counts as functional, organism-based.
Experiment [11] concerns B cell. As to the kind of experiment: Inhibition of Cyp7b1 in cigarette smoke extract (CSE) and LPS-stimulated mouse B cells at 0.3 to 1 uM assessed as reduction in cyp7b1 mRNA expression and measured by RT-PCR analysis relative to control. The settings on record: dose 0.3-1 µM. The experiment is classed as cell-based.
Experiment [12] has as its system Mus musculus. As to the kind of experiment: Protection against cigarette smoke-induced COPD in C57BL/6 mouse exposed with cigarette smoke for 6 months assessed as reduction in macrophage count in BALF at 80 mg/kg, ip administered 3 times per week from 2 to 4 months. It counts as functional, organism-based.
The subject of experiment [13] is Mus musculus. As to the kind of experiment: Protection against cigarette smoke-induced COPD in C57BL/6 mouse exposed with cigarette smoke for 4 months assessed as reduction in lung volume at 80 mg/kg, ip administered 3 times per week from 2 to 4 months. It counts as functional, organism-based.
Experiment [14] relates to Mus musculus. As to the kind of experiment: Protection against cigarette smoke-induced COPD in C57BL/6 mouse exposed with cigarette smoke for 6 months assessed as reduction in lung volume at 80 mg/kg, ip administered 3 times per week from 2 to 4 months. The experiment is classed as functional, organism-based.
Experiment [15] concerns Mus musculus. As to the kind of experiment: Protection against cigarette smoke-induced COPD in C57BL/6 mouse exposed with cigarette smoke for 6 months assessed as reduction in iBALT formation in lungs at 80 mg/kg, ip administered 3 times per week from 2 to 4 months. It counts as functional, organism-based. The settings on record: Lung.
Experiment [16] relates to B cell. As to the kind of experiment: Inhibition of Cyp7b1 in cigarette smoke extract (CSE) and LPS-stimulated mouse B cells at 0.3 to 1 uM assessed as reduction in TNF-alpha mRNA expression and measured by RT-PCR analysis relative to control. The conditions noted are these: dose 0.3-1 µM. It counts as cell-based.

Activity calls are given as the source filed them. The rule behind the calls is not given here.

Regarding `CC(C)(C(=O)c1cccnc1)c1cccnc1`, the inhibition result in the experiment listed under Mus musculus [1] is “Active”.
On the same count and under the same terms, as for `Clc1ccc(COC(Cn2ccnc2)c2ccc(Cl)cc2Cl)c(Cl)c1` (stereo not drawn), the entry is “Active”.
For `CC(C)c1nc(CN(C)C(=O)N[C@H](C(=O)N[C@@H](Cc2ccccc2)C[C@H](O)[C@H](Cc2ccccc2)NC(=O)OCc2cncs2)C(C)C)cs1`, the inhibition result in the experiment filed under Mus musculus [2] is “Active”.
`Clc1ccccc1C(c1ccccc1)(c1ccccc1)n1ccnc1`: the inhibition result in the experiment listed under Mus musculus [3], with B cell [5], in the experiment with B cell [11], in the experiment filed under Mus musculus [1] and in the experiment with B cell [16] was “Active” throughout. The outcome in the experiment on Mus musculus [4], in the experiment with Mus musculus [7], in the experiment with Mus musculus [8], in the experiment on Mus musculus [9], in the experiment with Mus musculus [10] and in the experiment with Mus musculus [12] was Active. In addition, the result in the experiment on Mus musculus [13], in the experiment with Mus musculus [14] and in the experiment on Mus musculus [15] was Active. Also, in the experiment listed under Mus musculus [6], the inhibition result was “inactive”.
